These results are taken from patent US20170312253A1 (The Third Affiliated Hospital, Third Military Medical …, priority 2014, published 2017).

In one experiment the test system is LRP. Description: Western blot of Aβ metabolizing enzymes in brain: LRP. The class given is in vivo. Conditions: AD mice brain. The protocol: (§1) APPswe/PS1DE9 (AD) transgenic mice were purchased from Jackson Laboratory, USA (No. 005864), raised in the SPF grade animal house of The Third Affiliated Hospital of The Third Military Medical University. All the processes and correlated experiments applied to the mice were approved and filed with the Animal Ethics Committee of the Third Military Medical University. […] Alternatively, the daily dose for the prophylactic group may be 6.4 mg/kg, and the daily dose for the treatment group may be 12.8 mg/kg. […]
(§2) The enzymes related with Aβ formation and degradation their molecule levels, the levels of hyperphosphprylated Tau proteins, and the levels of synaptic plasticity correlated proteins were all detected with Western blot. […] The blotting was detected with the following antibodies: APP C terminal antibody (171610, Millipore), BACE1 antibody (Millipore), Aβ antibody (6E10, Abcam), Nepriiysin antibody (Millipore), RAGE antibody (Millipore), LRP antibody (5A6, Calbiochem), IDE antibody (epitomics), phosphorylated Tau protein antibody, including pS396 (Signalway), pT231 (Signalway), pS199 (epitomics), pS262 (Abcam), SNAP25 antibody (Millipore), Synaptophysin antibody (Millipore), Synapsin I antibody (Millipore), VAMP1 antibody (Millipore), PSD95 antibody (Millipore), F-actin antibody (Actin) (Sigma-Aldrich). […]
On the technique in general: A western blot detects proteins with antibodies after separation by electrophoresis.

For the next experiment, the system named is Aβ 40, Aβ 42. Description: ELISA of Aβ 40, Aβ 42 in brain extracts (TBS, SDS, FA). The class given is in vivo. Conditions: AD mice, 2% SDS and FA extracts. As for the experimental part: (§3) APPswe/PS1DE9 (AD) transgenic mice were purchased from Jackson Laboratory, USA (No. 005864), raised in the SPF grade animal house of The Third Affiliated Hospital of The Third Military Medical University. All the processes and correlated experiments applied to the mice were approved and filed with the Animal Ethics Committee of the Third Military Medical University. […] Alternatively, the daily dose for the prophylactic group may be 6.4 mg/kg, and the daily dose for the treatment group may be 12.8 mg/kg. Administration from 3-month old to 9-month old is the prophylactic test, and administration from 9-month old to 12-month old is the therapeutic test After reaching a stated time, the mice in each group received behavioral tests according to the method in the follows. Three mice in each group were taken for Golgi staining. The remaining mice were overly anaesthetized to receive brain anatomy. One side of the cerebral hemisphere was frozen and then for a biochemical analysis, and the other side of the cerebral hemisphere was fixed with 4% paraform for a histological analysis.
After homogenating the frozen brain tissues, extraction was conducted with TBS, SDS and formic acid successively. The TBS, SDS and formic acid extracts represent soluble Aβ, loosen senile plaques and compact senile plaques, respectively. […]
Background: In an ELISA, binding on a coated surface is turned into a signal by an enzyme label.

The test system of experiment [1] is APPswe/PS1DE9 (AD) transgenic mice. Description: Y-maze (spontaneous alternation and novel arm probe test). The class given is in vivo. Conditions: AD mice vs control group. As for the experimental part: APPswe/PS1DE9 (AD) transgenic mice were purchased from Jackson Laboratory, USA (No. 005864), raised in the SPF grade animal house of The Third Affiliated Hospital of The Third Military Medical University. All the processes and correlated experiments applied to the mice were approved and filed with the Animal Ethics Committee of the Third Military Medical University. […] Alternatively, the daily dose for the prophylactic group may be 6.4 mg/kg, and the daily dose for the treatment group may be 12.8 mg/kg. Administration from 3-month old to 9-month old is the prophylactic test, and administration from 9-month old to 12-month old is the therapeutic test After reaching a stated time, the mice in each group received behavioral tests according to the method in the follows. Three mice in each group were taken for Golgi staining. The remaining mice were overly anaesthetized to receive brain anatomy. One side of the cerebral hemisphere was frozen and then for a biochemical analysis, and the other side of the cerebral hemisphere was fixed with 4% paraform for a histological analysis. All the mice in each group received behavioral tests, including a water maze, Y-maze and open field test. Water maze test includes four days of platform test and the subsequent probe test. The entire process was recorded by video, and analyzed with an image analysis software (ANY-maze, Stoelting). In the platform test, the escape path length and escape latency were measured and calculated. In the probe test, the time in each quadrant and the time across platform were measured. The spontaneous alternation test and novel arm probe test were carried out in the Y-maze. In the spontaneous alternation test, the mouse was free running In the maze for 5 min. Alternation is defined as entering the three arms connected with each other continuously. […] In the open field test, the mouse was put in the center of an open field for 3 min, and its path was recorded by a tracking system (Limelight, ActiMetrics). At the same time, the numbers of rearing, grooming, defecation and urination of the mouse were recorded.

For experiment [2], the system named is dendritic spines of pyramidal cells in hippocampus CA1. Description: Golgi staining, dendritic spines. The experiment is classed as in vivo. Conditions: AD mice. As for the experimental part:
as §3
After overly anesthetized, the animals received heart perfusions with normal saline containing 0.5% nitrous acid, 4% paraform, and Golgi dye liquor, successively. […]

Another experiment concerns Tau protein. Description: Western blot of phosphorylated Tau protein. The class given is in vivo. The settings on record: AD mice. The protocol: as §1, §2
The target of another experiment is T1, Gsk-3β (Mus musculus, UniProt Q9WV60).
T1 construct: from tissue; host or cells: brain of APPswe/PS1DE9 mice
T1 sequence (Q9WV60 whole entry): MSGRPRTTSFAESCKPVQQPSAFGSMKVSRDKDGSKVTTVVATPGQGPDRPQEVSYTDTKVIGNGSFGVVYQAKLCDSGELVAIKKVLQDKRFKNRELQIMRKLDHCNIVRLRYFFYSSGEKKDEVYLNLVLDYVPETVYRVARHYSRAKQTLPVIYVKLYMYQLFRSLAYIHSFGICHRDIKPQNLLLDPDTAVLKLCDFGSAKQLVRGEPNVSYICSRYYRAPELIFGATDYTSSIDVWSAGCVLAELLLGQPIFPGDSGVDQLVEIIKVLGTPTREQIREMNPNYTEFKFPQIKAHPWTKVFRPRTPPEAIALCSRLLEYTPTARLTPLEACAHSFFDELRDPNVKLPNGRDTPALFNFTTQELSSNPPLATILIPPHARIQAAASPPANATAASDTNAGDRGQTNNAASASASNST
Description: Gsk-3β activity in the brain of AD mice. The class given is in vivo. As for the experimental part:
as §3

The subject of the next experiment is IDE. Description: Western blot of Aβ metabolizing enzymes in brain: IDE. The class given is in vivo. The settings on record: AD mice brain. The protocol: as §1, §2
A further experiment deals with N2a/Swe.Δ9 cells. The settings on record: cited from earlier work.

Each structure is given as a SMILES string.

`CC1=NN(c2ccccc2)C(=O)C1` [Edaravone, 3-methyl-1-phenyl-2-pyrazolin-5-one]: in the experiment with LRP, the “influence on LRP” value is “no influence”. Besides, the “Aβ 40, Aβ 42 levels in brain extracts” value with Aβ 40, Aβ 42 was “significantly reduce the levels of Aβ at different, aggregation states”. Besides, in experiment [1], the Y-maze alternation proportion entry was “also significantly increased”, the Y-maze arm entry result is given as “significantly higher than in the control group” and the “Y-maze proportion of the novel arm entry” value was “significantly increased”. Besides, the “numbers of the dendritic spines” value in experiment [2] was “also significantly increased”. For the same compound, the “phosphorylation level of Tau protein” value with Tau protein is listed as “reduce the phosphorylation level of Tau protein at multiple pathological sites”. Besides, the “activity of Gsk-3β” value at Gsk-3β is recorded as “inhibit the activity of Gsk-3β”. Moreover, the “influence on IDE” value with IDE is recorded as “no influence”. Moreover, the “mitochondrion dependant apoptosis pathway” value with N2a/Swe.Δ9 cells is “inhibit the mitochondrion dependant apoptosis pathway”.
